Reference: ChEMBL document CHEMBL1201861, “Genomics of Drug Sensitity in Cancer screening data, Wellcome Trust Sanger Institute”

What was measured:
Experiment in all cases: cells
Assay type in all cases: functional, cell-based
Details in all cases: Homo sapiens
MDA-MB-175-VII = test system: MDA-MB-175-VII
SW948 = test system: SW948;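 further: growth inhibition of SW948 cells, read out with a cell viability assay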
Description: SANGER: Inhibition of human SW948 cell growth in a cell viability assay.

NCI-H1651 = test system: NCI-H1651;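 further: Read-out is a cell viability assay, with IC50 expressing inhibition of NCI-H1651 cell growth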
Description: SANGER: Inhibition of human NCI-H1651 cell growth in a cell viability assay.

NCI-H441 = test system: NCI-H441;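 further: growth inhibition of NCI-H441 cells, read out with a cell viability assay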
Description: SANGER: Inhibition of human NCI-H441 cell growth in a cell viability assay.

COLO-792 = test system: COLO-792
Description: SANGER: Inhibition of human COLO-792 cell growth in a cell viability assay.

KU-19-19 = test system: KU-19-19
Description: SANGER: Inhibition of human KU-19-19 cell growth in a cell viability assay.

HT-3 = test system: HT-3;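 further: growth inhibition measured with a cell viability readout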
Description: SANGER: Inhibition of human HT-3 cell growth in a cell viability assay.

NCI-H1792 = test system: NCI-H1792;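 further: growth inhibition of human NCI-H1792 cells, read out as cell viability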
Description: SANGER: Inhibition of human NCI-H1792 cell growth in a cell viability assay.

BFTC-905 = test system: BFTC-905
Description: SANGER: Inhibition of human BFTC-905 cell growth in a cell viability assay.

EW-22 = test system: EW-22;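 further: growth inhibition of the EW-22 cell line, measured with a cell viability readout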
Description: SANGER: Inhibition of human EW-22 cell growth in a cell viability assay.

SK-MEL-24 = test system: SK-MEL-24;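 further: growth inhibition read out by a cell viability assay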
Description: SANGER: Inhibition of human SK-MEL-24 cell growth in a cell viability assay.

HCC1419 = test system: HCC1419;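 further: growth inhibition of human HCC1419 cells, read out as cell viability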
Description: SANGER: Inhibition of human HCC1419 cell growth in a cell viability assay.

HT-1080 = test system: HT-1080
Description: SANGER: Inhibition of human HT-1080 cell growth in a cell viability assay.

SiHa = test system: SiHa;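 further: Viability-based readout of growth inhibition in SiHa cells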
Description: SANGER: Inhibition of human SiHa cell growth in a cell viability assay.

Hs-578T = test system: Hs-578T
Description: SANGER: Inhibition of human Hs-578-T cell growth in a cell viability assay.

MG-63 = test system: MG-63;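 further: growth inhibition of human MG-63 cells, read out with a cell viability assay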
Description: SANGER: Inhibition of human MG-63 cell growth in a cell viability assay.

LK-2 = test system: LK-2;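 further: growth inhibition of LK-2 cells, read out with a viability assay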
Description: SANGER: Inhibition of human LK-2 cell growth in a cell viability assay.

KYSE-520 cell line = test system: KYSE-520 cell line;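 further: growth inhibition of human KYSE-520 cells, read out with a viability assay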
Description: SANGER: Inhibition of human KYSE-520 cell growth in a cell viability assay.

NCI-H596 = test system: NCI-H596;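 further: growth inhibition of NCI-H596 cells, read out with a cell viability assay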
Description: SANGER: Inhibition of human NCI-H596 cell growth in a cell viability assay.

SCC-9 = test system: SCC-9;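 further: Read-out is a cell viability assay, with values giving inhibition of cell growth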
Description: SANGER: Inhibition of human SCC-9 cell growth in a cell viability assay.

H4 = test system: H4
Description: SANGER: Inhibition of human H4 cell growth in a cell viability assay.

HuO9 = test system: HuO9;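 further: growth inhibition of HuO9 cells, read out with a cell viability assay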
Description: SANGER: Inhibition of human HuO9 cell growth in a cell viability assay.

PC-14 = test system: PC-14;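 further: cell viability assay measuring inhibition of PC-14 cell growth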
Description: SANGER: Inhibition of human PC-14 cell growth in a cell viability assay.

U-251 = test system: U-251;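 further: growth inhibition of human U-251 cells, read out through a cell viability assay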
Description: SANGER: Inhibition of human U251 cell growth in a cell viability assay.

8305C = test system: 8305C
Description: SANGER: Inhibition of human 8305C cell growth in a cell viability assay.

NB7 = test system: NB7;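 further: growth inhibition of NB7 cells, read out with a cell viability assay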
Description: SANGER: Inhibition of human NB7 cell growth in a cell viability assay.

DBTRG-05MG = test system: DBTRG-05MG;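 further: cell viability assay measuring growth inhibition of human DBTRG-05MG cells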
Description: SANGER: Inhibition of human DBTRG-05MG cell growth in a cell viability assay.

SW1783 = test system: SW1783;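 further: cell growth inhibition measured with a viability assay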
Description: SANGER: Inhibition of human SW1783 cell growth in a cell viability assay.

KYSE-70 cell line = test system: KYSE-70 cell line;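 further: cell viability assay read-out, with IC50 expressing suppression of KYSE-70 cell growth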
Description: SANGER: Inhibition of human KYSE-70 cell growth in a cell viability assay.

EFO-27 = test system: EFO-27;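 further: growth inhibition of EFO-27 cells, read out with a cell viability assay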
Description: SANGER: Inhibition of human EFO-27 cell growth in a cell viability assay.

639-V = test system: 639-V;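 further: growth inhibition of 639-V cells, read out with a cell viability assay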
Description: SANGER: Inhibition of human 639-V cell growth in a cell viability assay.

RT-112 = test system: RT-112
Description: SANGER: Inhibition of human RT-112 cell growth in a cell viability assay.

KYSE-510 = test system: KYSE-510;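 further: cell viability readout used to measure how strongly growth of the cell line is suppressed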
Description: SANGER: Inhibition of human KYSE-510 cell growth in a cell viability assay.

HCC38 = test system: HCC38;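 further: cell viability assay on the human HCC38 cell line, with IC50 marking the concentration that inhibits cell growth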
Description: SANGER: Inhibition of human HCC38 cell growth in a cell viability assay.

AU565 = test system: AU565;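 further: cell viability assay measuring growth inhibition of human AU565 cells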
Description: SANGER: Inhibition of human AU565 cell growth in a cell viability assay.

EFO-21 = test system: EFO-21;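 further: growth inhibition of EFO-21 cells measured with a viability assay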
Description: SANGER: Inhibition of human EFO-21 cell growth in a cell viability assay.

A-431 = test system: A-431;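 further: growth inhibition of A-431 cells, determined with a cell viability read-out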
Description: SANGER: Inhibition of human A431 cell growth in a cell viability assay.

UACC-893 = test system: UACC-893
Description: SANGER: Inhibition of human UACC-893 cell growth in a cell viability assay.

J82 = test system: J82;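 further: growth inhibition of J82 cells, read out with a cell viability assay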
Description: SANGER: Inhibition of human J82 cell growth in a cell viability assay.

LU-99A = test system: LU-99A;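 further: growth inhibition of LU-99A cells, read out with a cell viability assay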
Description: SANGER: Inhibition of human LU-99A cell growth in a cell viability assay.

T84 = test system: T84;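 further: growth inhibition measured with a cell viability readout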
Description: SANGER: Inhibition of human T84 cell growth in a cell viability assay.

HLE = test system: HLE;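 further: growth inhibition of human HLE cells, read out by a cell viability assay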
Description: SANGER: Inhibition of human HLE cell growth in a cell viability assay.

COR-L105 = test system: COR-L105;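 further: cell growth inhibition determined with a viability assay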
Description: SANGER: Inhibition of human COR-L105 cell growth in a cell viability assay.

HCT-116 = test system: HCT-116
Description: SANGER: Inhibition of human HCT-116 cell growth in a cell viability assay.

SNU-387 = test system: SNU-387
Description: SANGER: Inhibition of human SNU-387 cell growth in a cell viability assay.

OAW-42 = test system: OAW-42;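 further: growth inhibition of OAW-42 cells, read out with a cell viability assay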
Description: SANGER: Inhibition of human OAW-42 cell growth in a cell viability assay.

NCI-H2122 = test system: NCI-H2122;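 further: growth inhibition of the cells, read out with a cell viability assay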
Description: SANGER: Inhibition of human NCI-H2122 cell growth in a cell viability assay.

SF-295 = test system: SF-295;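 further: growth inhibition of SF-295 cells, read out with a cell viability assay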
Description: SANGER: Inhibition of human SF295 cell growth in a cell viability assay.

RERF-LC-MS = test system: RERF-LC-MS;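 further: growth inhibition of human RERF-LC-MS cells, read out by a cell viability assay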
Description: SANGER: Inhibition of human RERF-LC-MS cell growth in a cell viability assay.

LB996-RCC = test system: LB996-RCC
Description: SANGER: Inhibition of human LB996-RCC cell growth in a cell viability assay.

SUP-T1 = test system: SUP-T1;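 further: growth inhibition of human SUP-T1 cells, read out as cell viability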
Description: SANGER: Inhibition of human SUP-T1 cell growth in a cell viability assay.

DMS-153 = test system: DMS-153
Description: SANGER: Inhibition of human DMS-153 cell growth in a cell viability assay.

P31-FUJ = test system: P31-FUJ;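 further: growth inhibition of P31-FUJ cells, read out with a viability assay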
Description: SANGER: Inhibition of human P31-FUJ cell growth in a cell viability assay.

CA46 = test system: CA46;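 further: growth inhibition of human CA46 cells, read out by a cell viability assay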
Description: SANGER: Inhibition of human CA46 cell growth in a cell viability assay.

BL-41 = test system: BL-41;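 further: growth inhibition of human BL-41 cells, read out with a cell viability assay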
Description: SANGER: Inhibition of human BL-41 cell growth in a cell viability assay.

U-698-M = test system: U-698-M
Description: SANGER: Inhibition of human U-698-M cell growth in a cell viability assay.

NCI-H2196 = test system: NCI-H2196;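 further: cell viability assay used as the readout of growth inhibition in NCI-H2196 cells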
Description: SANGER: Inhibition of human NCI-H2196 cell growth in a cell viability assay.

NALM-6 = test system: NALM-6;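 further: growth inhibition of NALM-6 cells, read out with a cell viability assay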
Description: SANGER: Inhibition of human NALM-6 cell growth in a cell viability assay.

EHEB = test system: EHEB;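 further: growth inhibition of human EHEB cells, read out with a cell viability assay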
Description: SANGER: Inhibition of human EHEB cell growth in a cell viability assay.

REH = test system: REH;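 further: growth inhibition of REH cells determined with a cell viability read-out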
Description: SANGER: Inhibition of human REH cell growth in a cell viability assay.

KMS-12-PE = test system: KMS-12-PE;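 further: growth inhibition of human KMS-12-PE cells, measured with a cell viability assay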
Description: SANGER: Inhibition of human KMS-12-PE cell growth in a cell viability assay.

SK-MM-2 = test system: SK-MM-2;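 further: growth inhibition of human SK-MM-2 cells, read out with a cell viability assay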
Description: SANGER: Inhibition of human SK-MM-2 cell growth in a cell viability assay.

NCI-H1436 = test system: NCI-H1436;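 further: growth suppression of human NCI-H1436 cells, determined with a cell viability readout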
Description: SANGER: Inhibition of human NCI-H1436 cell growth in a cell viability assay.

NCI-H748 = test system: NCI-H748;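 further: growth inhibition of NCI-H748 cells, measured by a cell viability assay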
Description: SANGER: Inhibition of human NCI-H748 cell growth in a cell viability assay.

Daudi = test system: Daudi
Description: SANGER: Inhibition of human Daudi cell growth in a cell viability assay.

Kasumi 1 = test system: Kasumi 1
Description: SANGER: Inhibition of human KASUMI-1 cell growth in a cell viability assay.

## NC(=O)c1ncn([C@@H]2O[C@H](COP(=O)(O)O)[C@@H](O)[C@H]2O)c1N
MDA-MB-175-VII
  IC50: > 2000 µM
SW948
  IC50: > 2000 µM
NCI-H1651
  IC50: > 2000 µM
NCI-H441
  IC50: > 2000 µM
COLO-792
  IC50: > 2000 µM
KU-19-19
  IC50: > 2000 µM
HT-3
  IC50: 472 µM
NCI-H1792
  IC50: 1590 µM
BFTC-905
  IC50: > 2000 µM
EW-22
  IC50: > 2000 µM
SK-MEL-24
  IC50: > 2000 µM
HCC1419
  IC50: > 2000 µM
HT-1080
  IC50: > 2000 µM
SiHa
  IC50: > 2000 µM
Hs-578T
  IC50: > 2000 µM
MG-63
  IC50: > 2000 µM
LK-2
  IC50: > 2000 µM
KYSE-520 cell line
  IC50: 382 µM
NCI-H596
  IC50: > 2000 µM
SCC-9
  IC50: > 2000 µM
H4
  IC50: > 2000 µM
HuO9
  IC50: 1970 µM
PC-14
  IC50: 379 µM
U-251
  IC50: > 2000 µM
8305C
  IC50: > 2000 µM
NB7
  IC50: 901 µM
DBTRG-05MG
  IC50: 1290 µM
SW1783
  IC50: > 2000 µM
KYSE-70 cell line
  IC50: > 2000 µM
EFO-27
  IC50: 1680 µM
639-V
  IC50: > 2000 µM
RT-112
  IC50: 1870 µM
KYSE-510
  IC50: 905 µM
HCC38
  IC50: > 2000 µM
AU565
  IC50: 357 µM
EFO-21
  IC50: > 2000 µM
A-431
  IC50: > 2000 µM
UACC-893
  IC50: > 2000 µM
J82
  IC50: > 2000 µM
LU-99A
  IC50: > 2000 µM
T84
  IC50: > 2000 µM
HLE
  IC50: > 2000 µM
COR-L105
  IC50: > 2000 µM
HCT-116
  IC50: 424 µM
SNU-387
  IC50: > 2000 µM
OAW-42
  IC50: > 2000 µM
NCI-H2122
  IC50: 507 µM

## CC(=O)c1c(C)c2cnc(Nc3ccc(N4CCNCC4)cn3)nc2n(C2CCCC2)c1=O [PALBOCICLIB]
MDA-MB-175-VII
  IC50: > 4 µM
SW948
  IC50: > 4 µM
NCI-H1651
  IC50: > 4 µM
NCI-H441
  IC50: 1.55 µM
COLO-792
  IC50: > 4 µM
KU-19-19
  IC50: > 4 µM
HT-3
  IC50: > 4 µM
NCI-H1792
  IC50: > 4 µM
BFTC-905
  IC50: 1.24 µM
SF-295
  IC50: > 4 µM
EW-22
  IC50: > 4 µM
HCC1419
  IC50: > 4 µM
HT-1080
  IC50: 1.38 µM
SiHa
  IC50: > 4 µM
Hs-578T
  IC50: 1.26 µM
MG-63
  IC50: 1.62 µM
LK-2
  IC50: > 4 µM
KYSE-520 cell line
  IC50: > 4 µM
NCI-H596
  IC50: > 4 µM
SCC-9
  IC50: > 4 µM
RERF-LC-MS
  IC50: > 4 µM
H4
  IC50: 1.73 µM
HuO9
  IC50: > 4 µM
PC-14
  IC50: > 4 µM
LB996-RCC
  IC50: > 4 µM
U-251
  IC50: 0.814 µM
8305C
  IC50: > 4 µM
NB7
  IC50: 1.99 µM
DBTRG-05MG
  IC50: > 4 µM
SW1783
  IC50: > 4 µM
KYSE-70 cell line
  IC50: > 4 µM
EFO-27
  IC50: 2.32 µM
639-V
  IC50: > 4 µM
RT-112
  IC50: 0.321 µM
KYSE-510
  IC50: > 4 µM
HCC38
  IC50: > 4 µM
AU565
  IC50: > 4 µM
EFO-21
  IC50: > 4 µM
A-431
  IC50: > 4 µM
LU-99A
  IC50: > 4 µM
T84
  IC50: > 4 µM
HLE
  IC50: > 4 µM
COR-L105
  IC50: > 4 µM
HCT-116
  IC50: > 4 µM
SNU-387
  IC50: > 4 µM
OAW-42
  IC50: > 4 µM
NCI-H2122
  IC50: > 4 µM

## O=c1[nH]c2ccccc2n1C1CCN(Cc2ccc(-c3nc4cc5[nH]cnc5cc4nc3-c3ccccc3)cc2)CC1
SUP-T1
  IC50: > 2.56 µM
MDA-MB-175-VII
  IC50: > 2.56 µM
SW948
  IC50: > 2.56 µM
NCI-H1651
  IC50: > 2.56 µM
NCI-H441
  IC50: > 2.56 µM
COLO-792
  IC50: > 2.56 µM
KU-19-19
  IC50: > 2.56 µM
DMS-153
  IC50: > 2.56 µM
HT-3
  IC50: > 2.56 µM
NCI-H1792
  IC50: > 2.56 µM
P31-FUJ
  IC50: > 2.56 µM
BFTC-905
  IC50: > 2.56 µM
SF-295
  IC50: > 2.56 µM
CA46
  IC50: > 2.56 µM
SK-MEL-24
  IC50: > 2.56 µM
HCC1419
  IC50: 2.34 µM
BL-41
  IC50: > 2.56 µM
HT-1080
  IC50: > 2.56 µM
SiHa
  IC50: > 2.56 µM
Hs-578T
  IC50: > 2.56 µM
MG-63
  IC50: > 2.56 µM
LK-2
  IC50: > 2.56 µM
KYSE-520 cell line
  IC50: > 2.56 µM
NCI-H596
  IC50: > 2.56 µM
SCC-9
  IC50: > 2.56 µM
RERF-LC-MS
  IC50: > 2.56 µM
U-698-M
  IC50: > 2.56 µM
H4
  IC50: > 2.56 µM
HuO9
  IC50: 1.55 µM
PC-14
  IC50: > 2.56 µM
NCI-H2196
  IC50: > 2.56 µM
LB996-RCC
  IC50: > 2.56 µM
U-251
  IC50: > 2.56 µM
NALM-6
  IC50: 2.15 µM
8305C
  IC50: > 2.56 µM
DBTRG-05MG
  IC50: > 2.56 µM
EHEB
  IC50: > 2.56 µM
SW1783
  IC50: > 2.56 µM
KYSE-70 cell line
  IC50: > 2.56 µM
EFO-27
  IC50: > 2.56 µM
639-V
  IC50: > 2.56 µM
RT-112
  IC50: > 2.56 µM
KYSE-510
  IC50: 2.21 µM
HCC38
  IC50: > 2.56 µM
AU565
  IC50: 1.24 µM
EFO-21
  IC50: > 2.56 µM
A-431
  IC50: > 2.56 µM
UACC-893
  IC50: > 2.56 µM
J82
  IC50: > 2.56 µM
REH
  IC50: > 2.56 µM
LU-99A
  IC50: > 2.56 µM
T84
  IC50: > 2.56 µM
KMS-12-PE
  IC50: > 2.56 µM
SK-MM-2
  IC50: > 2.56 µM
NCI-H1436
  IC50: > 2.56 µM
HLE
  IC50: > 2.56 µM
COR-L105
  IC50: > 2.56 µM
HCT-116
  IC50: > 2.56 µM
NCI-H748
  IC50: > 2.56 µM
Daudi
  IC50: > 2.56 µM
SNU-387
  IC50: > 2.56 µM
OAW-42
  IC50: > 2.56 µM
Kasumi 1
  IC50: 1.41 µM
NCI-H2122
  IC50: > 2.56 µM
